Results published in patent US20110172147A1, “NEUROPEPTIDE-2 RECEPTOR (Y-2R) AGONISTS” (priority 2009, published 2011).

Experiments:
Assay type in all cases: cell-based
[1] = biological target: Y4R (Homo sapiens, UniProt P50391); assay: CaFlux Assay (FLIPR), Y4R
[2] = biological target: T1, Y1R (Homo sapiens, UniProt P25929); assay: CaFlux Assay (FLIPR), Y1R
T1 sequence (P25929 1-384): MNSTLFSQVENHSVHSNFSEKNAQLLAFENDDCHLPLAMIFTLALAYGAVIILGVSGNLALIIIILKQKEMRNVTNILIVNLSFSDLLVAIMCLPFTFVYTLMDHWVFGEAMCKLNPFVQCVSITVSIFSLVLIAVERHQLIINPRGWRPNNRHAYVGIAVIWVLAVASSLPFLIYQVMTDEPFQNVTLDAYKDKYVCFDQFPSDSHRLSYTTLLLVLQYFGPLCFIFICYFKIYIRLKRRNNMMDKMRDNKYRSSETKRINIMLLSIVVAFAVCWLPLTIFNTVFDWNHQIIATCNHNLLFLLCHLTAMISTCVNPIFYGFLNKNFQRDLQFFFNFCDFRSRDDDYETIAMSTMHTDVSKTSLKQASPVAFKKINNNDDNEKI

[3] = biological target: T2, hNPY2R (Homo sapiens, UniProt P49146); assay: cAMP Agonist Assay, HEK293/hNPY2R; set-up: expressed in transfected cells; host or cells: HEK293/hNPY2R (G418 selection)
T2 sequence (P49146 1-381): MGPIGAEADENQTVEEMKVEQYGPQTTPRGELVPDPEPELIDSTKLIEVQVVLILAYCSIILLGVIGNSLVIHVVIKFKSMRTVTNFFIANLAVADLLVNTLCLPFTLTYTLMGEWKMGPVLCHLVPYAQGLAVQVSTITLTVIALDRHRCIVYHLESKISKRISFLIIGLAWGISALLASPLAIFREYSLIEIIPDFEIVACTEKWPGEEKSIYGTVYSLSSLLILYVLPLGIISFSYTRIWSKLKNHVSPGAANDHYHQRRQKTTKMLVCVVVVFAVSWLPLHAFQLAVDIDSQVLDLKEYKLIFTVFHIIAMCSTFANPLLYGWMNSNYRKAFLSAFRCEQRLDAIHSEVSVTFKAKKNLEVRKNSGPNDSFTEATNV
Summary of the method: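 Intracellular cAMP quantified by luminescent competitive ELISA after a 30 min room-temperature treatment of overnight-plated HEK293/hNPY2R cells with compound in medium containing 5 μM forskolin, 0.5 mM IBMX and 1.1% DMSO; four replicates per concentration.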

[4] = biological target: T3, Y5R (Homo sapiens, UniProt Q15761); assay: CaFlux Assay (FLIPR), Y5R
T3 sequence (Q15761 1-445): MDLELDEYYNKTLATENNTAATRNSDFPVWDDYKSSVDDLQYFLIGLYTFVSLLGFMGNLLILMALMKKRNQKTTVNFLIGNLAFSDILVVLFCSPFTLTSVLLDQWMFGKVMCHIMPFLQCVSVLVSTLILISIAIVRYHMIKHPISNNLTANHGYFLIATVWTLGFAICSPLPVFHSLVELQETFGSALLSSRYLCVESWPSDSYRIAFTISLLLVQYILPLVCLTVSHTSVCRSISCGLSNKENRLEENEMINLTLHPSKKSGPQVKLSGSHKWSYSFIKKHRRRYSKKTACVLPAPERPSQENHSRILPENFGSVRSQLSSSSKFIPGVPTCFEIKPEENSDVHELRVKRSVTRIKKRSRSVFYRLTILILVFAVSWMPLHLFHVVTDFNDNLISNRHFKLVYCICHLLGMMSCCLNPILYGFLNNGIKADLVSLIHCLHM

[5] = biological target: T2, hNPY2R; assay: CaFlux Assay (FLIPR), Y2R; set-up: expressed in transfected cells; host or cells: HEK-293 stably transfected with G protein chimera Gαqi9
Summary of the method: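 Calcium flux read by FLIPR in HEK-293 clones co-expressing chimeric Gαqi9 and receptor; compounds in HBSS/20 mM HEPES/0.05% BSA. Baseline-subtracted peak fluorescence, monitored 100 s after addition, is reported relative to the positive control's maximal response.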

Y4R, sequence (P50391 whole entry): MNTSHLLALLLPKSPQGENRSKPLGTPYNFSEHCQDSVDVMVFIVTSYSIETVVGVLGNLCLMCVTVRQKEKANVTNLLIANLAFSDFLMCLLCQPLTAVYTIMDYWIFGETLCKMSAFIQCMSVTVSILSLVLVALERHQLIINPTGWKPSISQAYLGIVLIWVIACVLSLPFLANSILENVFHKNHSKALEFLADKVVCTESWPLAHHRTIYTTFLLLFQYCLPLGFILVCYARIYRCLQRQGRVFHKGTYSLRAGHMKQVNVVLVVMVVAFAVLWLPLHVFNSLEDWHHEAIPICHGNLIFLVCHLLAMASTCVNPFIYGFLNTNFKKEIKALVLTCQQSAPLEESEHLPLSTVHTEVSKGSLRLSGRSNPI

SMILES	EC50 [1] [µM]	EC50 [2] [µM]	EC50 [3] [nM]	EC50 [4] [nM]	EC50 [5] [nM]
CCCCCCCCCCCCCCCC(=O)NCCCCCC(=O)N[C@H](C(=O)N[C@@H](CCCCNC(=O)CCOCCOCCOCCOCCOCCOCCOCCOCCOCCOCCOCCOCCOCCOCCOCCOCCOCCOCCOCCOCCOCCOCCOCCOC)C(=O)N1CCN(c2ccc3ncn(CC(=O)N[C@@H](CCCNC(=N)N)C(=O)N[C@@H](Cc4c[nH]cn4)C(=O)N[C@@H](Cc4ccc(O)cc4)C(=O)N[C@@H](CC(C)C)C(=O)N[C@@H](CC(N)=O)C(=O)N[C@@H](Cc4c[nH]c5ccccc45)C(=O)N[C@H](C(=O)N[C@H](C(=O)N[C@@H](CCCNC(=N)N)C(=O)N[C@@H](CCC(N)=O)C(=O)N(C)[C@@H](CCCNC(=N)N)C(=O)N[C@@H](Cc4ccc(O)cc4)C(N)=O)[C@@H](C)O)C(C)C)c(=O)c3c2)CC1)[C@@H](C)CC [Example 34]	> 5	> 5	0.18	988	0.068
CCCCCCCCCCCC(=O)NCCCCCC(=O)N[C@H](C(=O)N[C@@H](CCCCNC(=O)CCOCCOCCOCCOCCOCCOCCOCCOCCOCCOCCOCCOCCOCCOCCOCCOCCOCCOCCOCCOCCOCCOCCOCCOC)C(=O)N1CCN(c2ccc3ncn(CC(=O)N[C@@H](CCCNC(N)=O)C(=O)N[C@@H](Cc4c[nH]cn4)C(=O)N[C@@H](Cc4ccc(O)cc4)C(=O)N[C@@H](CC(C)C)C(=O)N[C@@H](CC(N)=O)C(=O)N[C@@H](Cc4c[nH]c5ccccc45)C(=O)N[C@H](C(=O)N[C@H](C(=O)N[C@@H](CCCNC(=N)N)C(=O)N[C@@H](CCC(N)=O)C(=O)N(C)[C@@H](CCCNC(=N)N)C(=O)N[C@@H](Cc4ccc(O)cc4)C(N)=O)[C@@H](C)O)C(C)C)c(=O)c3c2)CC1)[C@@H](C)CC [Example 36]	> 6	> 6	12.7	> 6000	0.388
CCCCCCCCCCCCCC(=O)NCCCCCC(=O)N[C@H](C(=O)N[C@@H](CCCCNC(=O)CCOCCOCCOCCOCCOCCOCCOCCOCCOCCOCCOCCOCCOCCOCCOCCOCCOCCOCCOCCOCCOCCOCCOCCOC)C(=O)N1CCN(c2ccc3ncn(CC(=O)N[C@@H](CCCNC(N)=O)C(=O)N[C@@H](Cc4c[nH]cn4)C(=O)N[C@@H](Cc4ccc(O)cc4)C(=O)N[C@@H](CC(C)C)C(=O)N[C@@H](CC(N)=O)C(=O)N[C@@H](Cc4c[nH]c5ccccc45)C(=O)N[C@H](C(=O)N[C@H](C(=O)N[C@@H](CCCNC(=N)N)C(=O)N[C@@H](CCC(N)=O)C(=O)N(C)[C@@H](CCCNC(=N)N)C(=O)N[C@@H](Cc4ccc(O)cc4)C(N)=O)[C@@H](C)O)C(C)C)c(=O)c3c2)CC1)[C@@H](C)CC [Example 37]	> 6	> 6	2.8	4260	0.158
CCCCCCCCCCCCCCCC(=O)NCCCCCC(=O)NCCOCCOCCOCCOCCOCCOCCOCCOCCOCCOCCOCCOCCOCCOCCOCCOCCOCCOCCOCCOCCOCCOCCOCCOCCC(=O)N[C@H](C(=O)N[C@@H](CCCCN)C(=O)N1CCN(c2ccc3ncn(CC(=O)N[C@@H](CCCNC(=N)N)C(=O)N[C@@H](Cc4c[nH]cn4)C(=O)N[C@@H](Cc4ccc(O)cc4)C(=O)N[C@@H](CC(C)C)C(=O)N[C@@H](CC(N)=O)C(=O)N[C@@H](Cc4c[nH]c5ccccc45)C(=O)N[C@H](C(=O)N[C@H](C(=O)N[C@@H](CCCNC(=N)N)C(=O)N[C@@H](CCC(N)=O)C(=O)N(C)[C@@H](CCCNC(=N)N)C(=O)N[C@@H](Cc4ccc(O)cc4)C(N)=O)[C@@H](C)O)C(C)C)c(=O)c3c2)CC1)[C@@H](C)CC [Example 38]	> 6	> 6	0.07	1380	0.1
CCCCCCCCCCCCCCCC(=O)NCCCCCC(=O)NCCOCCOCCOCCOCCOCCOCCOCCOCCOCCOCCOCCOCCOCCOCCOCCOCCOCCOCCOCCOCCOCCOCCOCCOCCC(=O)NCCCC[C@H](NC(=O)[C@@H](NC(C)=O)[C@@H](C)CC)C(=O)N1CCN(c2ccc3ncn(CC(=O)N[C@@H](CCCNC(=N)N)C(=O)N[C@@H](Cc4c[nH]cn4)C(=O)N[C@@H](Cc4ccc(O)cc4)C(=O)N[C@@H](CC(C)C)C(=O)N[C@@H](CC(N)=O)C(=O)N[C@@H](Cc4c[nH]c5ccccc45)C(=O)N[C@H](C(=O)N[C@H](C(=O)N[C@@H](CCCNC(=N)N)C(=O)N[C@@H](CCC(N)=O)C(=O)N(C)[C@@H](CCCNC(=N)N)C(=O)N[C@@H](Cc4ccc(O)cc4)C(N)=O)[C@@H](C)O)C(C)C)c(=O)c3c2)CC1 [Example 39]	> 6	> 6	0.07	1950	0.038
CCCCCCCCCCCCCCCC(=O)NCCCCCC(=O)NCCCCCC(=O)N[C@H](C(=O)N[C@@H](CCCCNC(=O)CCOCCOCCOCCOCCOCCOCCOCCOCCOCCOCCOCCOC)C(=O)N1CCN(c2ccc3ncn(CC(=O)N[C@@H](CCCNC(=N)N)C(=O)N[C@@H](Cc4c[nH]cn4)C(=O)N[C@@H](Cc4ccc(O)cc4)C(=O)N[C@@H](CC(C)C)C(=O)N[C@@H](CC(N)=O)C(=O)N[C@@H](Cc4c[nH]c5ccccc45)C(=O)N[C@H](C(=O)N[C@H](C(=O)N[C@@H](CCCNC(=N)N)C(=O)N[C@@H](CCC(N)=O)C(=O)N(C)[C@@H](CCCNC(=N)N)C(=O)N[C@@H](Cc4ccc(O)cc4)C(N)=O)[C@@H](C)O)C(C)C)c(=O)c3c2)CC1)[C@@H](C)CC [Example 40]	> 6	> 6	0.11	820	0.058
CCCCCCCCCCCCCCCC(=O)NCCCCCC(=O)NCCCCCC(=O)N[C@H](C(=O)N[C@@H](CCCCNC(=O)CCOCCOCCOCCOCCOCCOCCOCCOCCOCCOCCOCCOCCOCCOCCOCCOC)C(=O)N1CCN(c2ccc3ncn(CC(=O)N[C@@H](CCCNC(=N)N)C(=O)N[C@@H](Cc4c[nH]cn4)C(=O)N[C@@H](Cc4ccc(O)cc4)C(=O)N[C@@H](CC(C)C)C(=O)N[C@@H](CC(N)=O)C(=O)N[C@@H](Cc4c[nH]c5ccccc45)C(=O)N[C@H](C(=O)N[C@H](C(=O)N[C@@H](CCCNC(=N)N)C(=O)N[C@@H](CCC(N)=O)C(=O)N(C)[C@@H](CCCNC(=N)N)C(=O)N[C@@H](Cc4ccc(O)cc4)C(N)=O)[C@@H](C)O)C(C)C)c(=O)c3c2)CC1)[C@@H](C)CC [Example 41]	> 6	> 6	0.17	1320	0.04
CCCCCCCCCCCCCCCC(=O)NCCCCCC(=O)NCCCCCC(=O)N[C@H](C(=O)N[C@@H](CCCCNC(=O)CCOCCOCCOCCOCCOCCOCCOCCOCCOCCOCCOCCOCCOCCOCCOCCOCCOCCOCCOCCOCCOCCOCCOCCOC)C(=O)N1CCN(c2ccc3ncn(CC(=O)N[C@@H](CCCNC(=N)N)C(=O)N[C@@H](Cc4c[nH]cn4)C(=O)N[C@@H](Cc4ccc(O)cc4)C(=O)N[C@@H](CC(C)C)C(=O)N[C@@H](CC(N)=O)C(=O)N[C@@H](Cc4c[nH]c5ccccc45)C(=O)N[C@H](C(=O)N[C@H](C(=O)N[C@@H](CCCNC(=N)N)C(=O)N[C@@H](CCC(N)=O)C(=O)N(C)[C@@H](CCCNC(=N)N)C(=O)N[C@@H](Cc4ccc(O)cc4)C(N)=O)[C@@H](C)O)C(C)C)c(=O)c3c2)CC1)[C@@H](C)CC [Example 42]	> 6	> 6	0.13	815	0.069
